Broadly, the logP is a log measure of how a compound divides between an organic and an aqueous phase. Lower therefore signals lower lipophilicity.

These results are taken from patent US20230172873A1, “Uses and Formulations of Cannabinoids” (priority 2020, published 2023).

For one data set, the system named is inflammatory processes. Conditions: cited from earlier work.
A short description of data set [1]: log P (n-octanol/water partition coefficient). Type of data set: physicochemical. The note with it: active ingredient of Example 9. The method, then: In fact, cannabinoids are highly lipophilic molecules (log P 6-7) with very low water solubility (2-10 µg / ml). The log P is the decimal logarithm of the n-octanol/water partition coefficient. The partition coefficient can be determined experimentally. Values typically refer to room temperature (25° C.). The partition coefficient can also be roughly calculated from the molecular structure.

In another data set the test system is CD83. Conditions: dendritic cells derived from individuals with HIV infection; cited from earlier work.
The subject of a further data set is NK, NKT, T and B cells. The note with it: healthy rats, cited from earlier work.
In data set [2] the test system is IL-6 secretion. The note with it: conversion of the effective concentration.
The conditions of data set [3]: mice; 120 mg/kg single dose (Deiana et al. 2012); cited from earlier work.
The nature of data set [4]: Systemic exposure after i.p. and oral application of CBD in mice. Type of data set: in vivo. The note with it: 20 mg/kg; assuming dose-proportional plasma concentrations. How it is done: A comparative investigation for systemic exposure after i.p. and oral application of CBD in mice and rats has shown that 120 mg/kg as a single dose leads to a maximum plasma concentration of 14,000 ng/ml in mice (S. Deiana et al. (2012). Plasma and brain pharmacokinetic profile of cannabidiol (CBD), cannabidivarine (CBDV), Delta(9)-tetrahydrocannabivarin (THCV) and cannabigerol (CBG) in rats and mice following oral and intraperitoneal administration and CBD action on obsessive-compulsive behaviour. Psychopharmacology (Berl) 219(3): 859-73).

In a further data set the test system is microglial cells. The note with it: 1-16 µmol/l (Wu et al. 2012); cited from earlier work.
Data set [5] concerns LPS-induced acute lung injury. Conditions: cited from earlier work.
Data set [6] concerns IL-6 secretion. Conditions: cellular models, majority of cases (Chen et al. 2016); cited from earlier work.
Data set [7] has as its system LPS-induced acute lung injury. The note with it: mice, 20 mg/kg, cited from earlier work.
The test system of the next data set is human mononuclear cells. Conditions: nanomolar or micromolar concentrations; cited from earlier work.
The subject of data set [8] is ischemia-reperfusion-induced kidney injury. The note with it: mice, cited from earlier work.
Data set [9] concerns activated memory T cell line. Conditions: 1-5 µmol/l (Kozela et al. 2013), cited from earlier work.
A further data set deals with human neutrophils. Conditions: McHugh et al. 2008; cited from earlier work.
Data set [10] deals with chemically induced acute hepatitis. Conditions: mice, cited from earlier work.
The target in the next data set is T1, IL-6 receptor (Homo sapiens, UniProt P08887).
T1 sequence (P08887 20-468): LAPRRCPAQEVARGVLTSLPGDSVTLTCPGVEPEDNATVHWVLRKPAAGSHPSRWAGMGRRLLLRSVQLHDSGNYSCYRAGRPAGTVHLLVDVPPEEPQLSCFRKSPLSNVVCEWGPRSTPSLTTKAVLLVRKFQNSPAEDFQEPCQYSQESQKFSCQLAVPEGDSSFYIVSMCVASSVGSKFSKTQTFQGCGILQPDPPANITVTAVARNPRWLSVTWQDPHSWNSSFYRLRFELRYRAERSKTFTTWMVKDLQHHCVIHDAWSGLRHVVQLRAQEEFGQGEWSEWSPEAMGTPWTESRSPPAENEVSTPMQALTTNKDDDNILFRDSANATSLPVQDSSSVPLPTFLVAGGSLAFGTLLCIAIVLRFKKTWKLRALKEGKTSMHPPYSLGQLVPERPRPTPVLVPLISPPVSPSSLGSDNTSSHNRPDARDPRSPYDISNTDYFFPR
Conditions: patients with rheumatoid arthritis and systemic juvenile idiopathic arthritis; cited from earlier work.

Setting [11] is: mice, 0.3-80 mg/kg i.p. 60 minutes before LPS (Ribeiro et al. 2012).

Read-outs that look alike come from different tables or passages of the source.

For the compound `C=C(C)[C@@H]1CCC(C)=C[C@H]1c1c(O)cc(CCCCC)cc1O` [CBD, 2-[(1R,6R)-3-methyl-6-(1-methylethenyl)-2-cyclohexen-1-yl]-5-pentyl-1,3-benzenediol], the “circulating IL-6” value with inflammatory processes (animal models including diabetes, asthma, pancreatitis and hepatitis (Nichols and Kaplan 2020)) is listed as “suppress”. For the same compound, the “regulatory T cells (Tregs)” value in the data set on inflammatory processes (several disease models (Nichols and Kaplan 2020)) is “induce regulatory T cells (Tregs)”. The logP in data set [1] was approximately 6.1. In addition, in the data set with CD83, the “CD83 dendritic cell activation marker” value is listed as “suppresses”. For the same compound, the “numbers of natural killer (NK) cells and natural killer T (NKT) cells” value in the data set on NK, NKT, T and B cells (2.5 mg/kg per day) is on record as “increased”. For the same compound, in the data set with NK, NKT, T and B cells (5 mg/kg per day), the “numbers of natural killer (NK) cells and natural killer T (NKT) cells” value is given as “not affected”. Moreover, in the data set with NK, NKT, T and B cells (daily 5 mg/kg), the “number of B cells” value is listed as “significantly reduced”; the “number of T cells including T helper cells and cytotoxic T cells” value is given as “significantly reduced”. Moreover, the “resulting concentration (5 µM converted with molecular weight 314.5 g/mol)” value in the data set with IL-6 secretion [2] is reported as 1,570 ng/ml. The maximum plasma concentration in data set [3] is on record as 14,000 ng/ml. Further, the target peak exposure in [4] is given as 2,300 ng/ml. In addition, the “apoptosis in microglial cells” value in the data set on microglial cells was “induces apoptosis”. Further, the “number of leukocytes including macrophages and neutrophils in the bronchoalveolar lavage fluid” value in data set [5] (mice, 20 mg/kg, after LPS-induced lung inflammation) is on record as “decreases”. For the same compound, in data set [5] (setting [11]), the Total leukocytes migration entry is reported as “significantly decreased”; the myeloperoxidase activity entry was “significantly decreased”; the “pro-inflammatory cytokine production including TNF-a and IL-6” value was “significantly decreased”; the vascular permeability result is reported as “significantly decreased”. The “dose at which effects reached a nearly maximum extent” value in [5] (prophylactic application, i.p.) was 20 mg/kg. Further, in the data set on IL-6 secretion [6], the “effective concentration for suppressive effect on IL-6 secretion” value was approximately 5 µM. The mechanical lung function entry in data set [7] (6 h after LPS (Ribeiro et al. 2014)) is recorded as “improved”. For the same compound, in data set [7] (6 h after LPS), the “leukocyte migration (neutrophil, macrophages and lymphocytes) into the lungs” value is on record as “decreased”; the “myeloperoxidase activity in the lung tissue” value is “decreased”; the “production of proinflammatory cytokines/chemokines” value is “reduced”; the vascular permeability entry is on record as “reduced”. The “release of pro-inflammatory cytokines” value in the data set with human mononuclear cells is “suppressed”. Further, the kidney protection entry in data set [8] (10 mg/kg after induced kidney injury (Baban et al. 2018)) is listed as “renoprotective”. In addition, the “decreased Treg17 and increased Th17 levels” value in data set [8] (10 mg/kg after induced kidney injury) was “reversed these effects”. In data set [9], the “IL-6 production and secretion” value is on record as “decreased”; the “production of IL-10” value is reported as “increased”. Further, the “autoantigen-specific Th17 cell phenotype (Th17 signature cytokine IL-17)” value in data set [9] (dose-dependently) was “reduces”. Also, the “migration of human neutrophils” value with human neutrophils was “inhibits”. Also, the “expression of MDSCs” value in data set [10] (25 mg/kg (Hegde et al. 2011)) is reported as “induces the expression of MDSCs”. For the same compound, the “pro-inflammatory cytokines such as IL-2, TNF-α and IL-6” value in [10] (25 mg/kg) was “reduction”.
As to “tocilizumab: a humanized anti-IL-6 receptor antibody”, in the data set with IL-6 receptor, the efficacy result is listed as “verified its efficacy” and the safety entry was “tolerable safety”.
